Experimental data published in US20110112057A1, “Sequential administration of 20,20,21,21,21-pentafluoro-17-hydroxy-11Beta-[4-(hydroxyacetyl)phenyl]-19-nor-17Alpha-pregna-4,9-dien-3-one and one or more progestogens for the treatment of gynaecological disorders” (BAYER SCHERING PHARIMA AKTIENGESELL SCHAFT, priority 2008, published 2011).

Columns and labels:
[1] = test system: women of reproductive age; assay: randomised study of sequential treatment cycles with progesterone receptor antagonist followed by a progestogen; type: in vivo
Description: Women of reproductive age are treated in a randomised study sequentially in two treatment cycles with 20,20,21,21,21-pentafluoro-17-hydroxy-11β-[4-(hydroxyacetyl)phenyl]-19-nor-17α-pregna-4,9-dien-3-one. For this purpose, 20,20,21,21,21-pentafluoro-17-hydroxy-11β-[4-(hydroxyacetyl)phenyl]-19-nor-17α-pregna-4,9-dien-3-one is administered to the women in each case for 84 days with a daily dose of between about 1 mg and about 50 mg, followed by intake of a progestogen over a period of about 10 to 14 days. This complete treatment cycle is repeated once.

[2] = test system: endometrium of patients with symptomatic uterine leiomyomata; settings: after use for 3 months (Williams 2007); cited from earlier work
[3] = test system: healthy, tube-ligated women; assay: randomised study on the effect of lonaprisan in healthy, tube-ligated women; type: in vivo
Description: 36 healthy, tube-ligated women from 24 to 43 years of age were subjects in a randomised study on the effect of lonaprisan. For this purpose, the women were divided into three groups: 7 women received placebo, 14 women 1 mg of lonaprisan and 15 women 10 mg of lonaprisan over a period of 3 months, once a day.

[4] = 1 mg or 10 mg lonaprisan once a day over 3 months, not observed in placebo group

In the case of C[C@]12C[C@H](c3ccc(C(=O)CO)cc3)C3=C4CCC(=O)C=C4CC[C@H]3[C@@H]1CC[C@@]2(O)C(F)(F)C(F)(F)F [20,20,21,21,21-pentafluoro-17-hydroxy-11β-[4-(hydroxyacetyl)phenyl]-19-nor-17α-pregna-4,9-dien-3-one], the “bleeding pattern during the treatment phase” value ([1]; 84 days, daily dose about 1 mg to about 50 mg) was “amenorrhoea or a greatly reduced bleeding”, the “bleeding after sequential treatment with the progestogen” value ([1]; 84 days, daily dose about 1 mg to about 50 mg, followed by a progestogen for about 10 to 14 days, cycle repeated once) was “menstrual bleeding following administration of the progestogen” and the “endometrial biopsies: persistent changes in the endometrium” value ([1]; after completion of each treatment cycle) was “no persistent changes in the endometrium”.
In the case of COC[C@]1(OC)CC[C@H]2[C@@H]3CCC4=CC(=O)CCC4=C3[C@@H](c3ccc(/C=N/O)cc3)C[C@@]21C [asoprisnil], the endometrial pattern diagnosed [2] is listed as “non-physiological secretory effect” and the endometrial vessels [2] is listed as “thickening of the smooth muscle cell layer surrounding the endometrial vessels”.
In the case of CC(=O)c1ccc([C@H]2C[C@@]3(C)[C@@H](CC[C@@]3(O)C(F)(F)C(F)(F)F)[C@@H]3CCC4=CC(=O)CCC4=C32)cc1 [lonaprisan, 11β-(4-acetylphenyl)-20,20,21,21,21-pentafluoro-17-hydroxy-19-nor-17α-pregna-4,9-dien-3-one], the bleeding pattern [3, 4] was “amenorrhoea or a greatly reduced bleeding”, the effect on ovulation [3, 4] was “inhibition of ovulation” and the “menstrual bleeding after discontinuation” value ([3]; after discontinuation of lonaprisan) was “spontaneous return of menstrual bleeding”. For the same molecule, the “endometrial biopsies: persistent changes in the endometrium” value ([3]; after the first menstrual bleeding after completion of the treatment phase) was “no persistent changes in the endometrium”.
